pIC50: −log10 of the molar value.
What was measured:
[1] = target: Mitogen-activated protein kinase 14 (Homo sapiens, UniProt Q16539); assay: Inhibition of p38alpha MAP kinase (unknown origin) using GFP-ATF2 as substrate after 1 hr by TR-FRET assay
[2] = target: Mitogen-activated protein kinase 3 (Homo sapiens, UniProt P27361); assay: Inhibition of ERK1 (unknown origin) using GFP-ATF2 as substrate after 1 hr by TR-FRET assay
[3] = target: Mitogen-activated protein kinase 1 (Homo sapiens, UniProt P28482); assay: Inhibition of ERK2 (unknown origin) using GFP-ATF2 as substrate after 1 hr by TR-FRET assay
Mitogen-activated protein kinase 1, sequence (P28482 whole entry): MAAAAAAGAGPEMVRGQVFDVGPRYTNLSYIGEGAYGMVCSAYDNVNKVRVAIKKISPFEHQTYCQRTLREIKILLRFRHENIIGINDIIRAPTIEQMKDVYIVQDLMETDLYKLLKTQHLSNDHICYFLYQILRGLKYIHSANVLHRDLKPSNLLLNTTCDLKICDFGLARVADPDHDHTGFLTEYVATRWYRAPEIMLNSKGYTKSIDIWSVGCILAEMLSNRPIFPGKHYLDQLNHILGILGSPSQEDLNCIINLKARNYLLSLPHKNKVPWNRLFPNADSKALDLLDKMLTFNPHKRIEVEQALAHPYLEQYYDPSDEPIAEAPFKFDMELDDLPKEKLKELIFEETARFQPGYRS

[4] = test system: MCF7; assay: Antiproliferative activity against human MCF7 cells assessed as inhibition of cell vaibility after 72 hrs by MTT assay; format: functional, cell-based; conditions: MCF7, 72 h
[5] = test system: T47D; assay: Antiproliferative activity against human T47D cells assessed as inhibition of cell vaibility after 72 hrs by MTT assay; format: functional, cell-based
[6] = Antiproliferative activity against human COLO205 cells assessed as inhibition of cell vaibility after 72 hrs by MTT assay; format: functional, cell-based; conditions: COLO 205, 72 h
[7] = test system: HT-29; assay: Antiproliferative activity against human HT-29 cells assessed as inhibition of cell vaibility after 72 hrs by MTT assay; format: functional, cell-based; conditions: HT-29, 72 h
[8] = test system: K562; assay: Antiproliferative activity against human K562 cells assessed as inhibition of cell vaibility after 72 hrs by MTT assay; format: functional, cell-based; conditions: K562, 72 h
[9] = test system: A549; assay: Antiproliferative activity against human A549 cells assessed as inhibition of cell vaibility after 72 hrs by MTT assay; format: functional, cell-based; conditions: A549, 72 h
[10] = Antiproliferative activity against human LOXIMVI cells assessed as inhibition of cell vaibility after 72 hrs by MTT assay; format: functional, cell-based; conditions: LOX IMVI
[11] = test system: MDA-MB-435; assay: Antiproliferative activity against human MDA-MB-435 cells assessed as inhibition of cell vaibility after 72 hrs by MTT assay; format: functional, cell-based; conditions: MDA-MB-435, 72 h
[12] = test system: PC-3; assay: Antiproliferative activity against human PC3 cells assessed as inhibition of cell vaibility after 72 hrs by MTT assay; format: functional, cell-based; conditions: PC-3, 72 h
[13] = test system: Vero; assay: Cytotoxicity against African green monkey Vero cells assessed as inhibition of cell viability after 72 hrs by MTT assay; format: cell-based; conditions: Chlorocebus sabaeus
[14] = test system: MCF7; assay: Selectivity index, ratio of IC50 for African green monkey Vero cells to IC50 for human MCF7 cells; format: functional
[15] = test system: T47D; assay: Selectivity index, ratio of IC50 for African green monkey Vero cells to IC50 for human T47D cells; format: functional
[16] = test system: Vero; assay: Selectivity index, ratio of IC50 for African green monkey Vero cells to IC50 for human COLO205 cells; format: functional
[17] = test system: HT-29; assay: Selectivity index, ratio of IC50 for African green monkey Vero cells to IC50 for human HT-29 cells; format: functional
[18] = test system: A549; assay: Selectivity index, ratio of IC50 for African green monkey Vero cells to IC50 for human A549 cells; format: functional
[19] = test system: Vero; assay: Selectivity index, ratio of IC50 for African green monkey Vero cells to IC50 for human LOXIMVI cells; format: functional
[20] = test system: Vero; assay: Selectivity index, ratio of IC50 for African green monkey Vero cells to IC50 for human MDA-MB-435 cells; format: functional
[21] = test system: Vero; assay: Selectivity index, ratio of IC50 for African green monkey Vero cells to IC50 for human PC3 cells; format: functional

Mitogen-activated protein kinase 3, sequence (P27361 whole entry): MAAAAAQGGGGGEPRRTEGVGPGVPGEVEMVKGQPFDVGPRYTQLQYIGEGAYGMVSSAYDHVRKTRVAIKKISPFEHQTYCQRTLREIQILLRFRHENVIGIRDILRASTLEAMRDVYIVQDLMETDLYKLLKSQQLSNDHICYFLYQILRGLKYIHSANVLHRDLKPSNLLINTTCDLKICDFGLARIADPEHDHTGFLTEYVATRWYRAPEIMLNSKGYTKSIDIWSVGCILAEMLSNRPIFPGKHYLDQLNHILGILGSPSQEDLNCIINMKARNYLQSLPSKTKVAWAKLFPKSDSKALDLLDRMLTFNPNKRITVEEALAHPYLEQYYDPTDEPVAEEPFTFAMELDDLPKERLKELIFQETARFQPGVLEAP
Mitogen-activated protein kinase 14, sequence (Q16539 whole entry): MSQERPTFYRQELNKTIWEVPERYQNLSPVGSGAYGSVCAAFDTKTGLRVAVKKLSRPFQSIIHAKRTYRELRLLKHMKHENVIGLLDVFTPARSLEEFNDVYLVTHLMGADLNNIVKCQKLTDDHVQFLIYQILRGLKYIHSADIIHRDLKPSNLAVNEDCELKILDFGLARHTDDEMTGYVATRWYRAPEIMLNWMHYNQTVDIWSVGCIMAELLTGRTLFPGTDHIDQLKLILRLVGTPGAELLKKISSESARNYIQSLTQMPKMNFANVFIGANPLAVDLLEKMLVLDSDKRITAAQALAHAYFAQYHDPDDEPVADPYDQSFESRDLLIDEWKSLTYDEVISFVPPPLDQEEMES

SMILES | pIC50 [1] | pIC50 [2] | pIC50 [3] | further results
COc1cccc(N2C(=O)/C(=C/c3ccc(OCC(=O)Nc4ccc(Cl)cc4)cc3)N=C2c2ccccc2)c1 | 8.34 | 7.02 | 8.34 | 
COc1ccc(N2C(=O)/C(=C/c3ccc(OCC(=O)Nc4cccc(Cl)c4)cc3)N=C2c2ccccc2)cc1 | 8.35 | 7.46 | 8.15 | 
COc1cccc(N2C(=O)/C(=C/c3ccc(OCC(=O)Nc4ccc(C)cc4)cc3)N=C2c2ccccc2)c1 | 8.35 | 7.60 | 8.49 | pIC50 [4]: 6.43; pIC50 [5]: 6.17; pIC50 [6]: 5.03; pIC50 [7]: 5.24; pIC50 [8]: < 4.00; pIC50 [9]: 5.19; pIC50 [10]: 6.12; pIC50 [11]: 6.64; pIC50 [12]: 6.07; pIC50 [13]: 4.76; Ratio IC50 [14]: 46.86; Ratio IC50 [15]: 25.88; Ratio IC50 [16]: 1.85; Ratio IC50 [17]: 2.98; Ratio IC50 [18]: 2.66; Ratio IC50 [19]: 22.81; Ratio IC50 [20]: 75.39; Ratio IC50 [21]: 20.16
COc1cccc(N2C(=O)/C(=C/c3ccc(OCC(=O)Nc4ccccc4OC)cc3)N=C2c2ccccc2)c1 | 7.27 | 7.34 | 8.33 | 
COc1ccc(N2C(=O)/C(=C/c3ccc(OCC(=O)Nc4ccccc4Cl)cc3)N=C2c2ccccc2)cc1 | 8.33 | 7.62 | 8.46 | pIC50 [4]: 6.28; pIC50 [5]: 6.30; pIC50 [6]: 5.35; pIC50 [7]: 5.35; pIC50 [8]: < 4.00; pIC50 [9]: 5.31; pIC50 [10]: 6.89; pIC50 [11]: 7.30; pIC50 [12]: 6.00; pIC50 [13]: 4.88; Ratio IC50 [14]: 24.9; Ratio IC50 [15]: 26.4; Ratio IC50 [16]: 2.93; Ratio IC50 [17]: 2.93; Ratio IC50 [18]: 2.69; Ratio IC50 [19]: 101.54; Ratio IC50 [20]: 264; Ratio IC50 [21]: 13.33
COc1cccc(N2C(=O)/C(=C/c3ccc(OCC(=O)Nc4ccccc4Cl)cc3)N=C2c2ccccc2)c1 | 8.25 | 7.06 | 8.28 | 
COc1ccc(N2C(=O)/C(=C/c3ccc(OCC(=O)Nc4ccccc4OC)cc3)N=C2c2ccccc2)cc1 | 7.47 | 7.37 | 7.05 | 
COc1ccc(NC(=O)COc2ccc(/C=C3\N=C(c4ccccc4)N(c4ccc(OC)cc4)C3=O)cc2)cc1 | 6.46 | 7.64 | 8.64 | 
COc1ccc(N2C(=O)/C(=C/c3ccc(OCC(=O)Nc4cccc(OC)c4)cc3)N=C2c2ccccc2)cc1 | 7.64 | 7.68 | 7.68 | 
COc1ccc(N2C(=O)/C(=C/c3ccc(OCC(=O)Nc4ccc(C)cc4)cc3)N=C2c2ccccc2)cc1 | 6.46 | 7.64 | 7.37 | 
CNC(=O)c1cc(Oc2ccc(NC(=O)Nc3ccc(Cl)c(C(F)(F)F)c3)cc2)ccn1 [SORAFENIB] |  |  |  | pIC50 [4]: 6.11; pIC50 [5]: 6.21; pIC50 [6]: 6.06; pIC50 [7]: 6.41; pIC50 [8]: 5.91; pIC50 [9]: 5.50; pIC50 [10]: 5.37; pIC50 [11]: 5.78; pIC50 [12]: 5.38
COc1cccc(NC(=O)COc2ccc(/C=C3\N=C(c4ccccc4)N(c4cccc(OC)c4)C3=O)cc2)c1 | 8.19 | 7.24 | 8.27 | 
COc1ccc(N2C(=O)/C(=C/c3ccc(OCC(=O)Nc4ccccc4)cc3)N=C2c2ccccc2)cc1 | 6.45 | 7.64 | 7.64 | 

Continued by rising pIC50 [1], values first:

pIC50 [1] | pIC50 [2] | pIC50 [3] | SMILES | further results
7.06 | 7.70 | 7.37 | COc1cccc(N2C(=O)/C(=C/c3ccc(OCC(=O)Nc4cccc(C)c4)cc3)N=C2c2ccccc2)c1 | 
7.11 | 7.05 | 7.11 | COc1ccc(N2C(=O)/C(=C/c3ccc(OCC(=O)Nc4cccc(C)c4)cc3)N=C2c2ccccc2)cc1 | 
7.18 | 7.37 | 7.36 | COc1cccc(N2C(=O)/C(=C/c3ccc(OCC(=O)Nc4ccccc4C)cc3)N=C2c2ccccc2)c1 | 
7.25 | 7.49 | 7.64 | COc1ccc(N2C(=O)/C(=C/c3ccc(OCC(=O)Nc4ccccc4C)cc3)N=C2c2ccccc2)cc1 | 
7.36 | 7.33 | 8.35 | COc1ccc(N2C(=O)/C(=C/c3ccc(OCC(=O)Nc4ccc(Cl)cc4)cc3)N=C2c2ccccc2)cc1 | 
7.46 | 7.19 | 7.27 | COc1cccc(N2C(=O)/C(=C/c3ccc(OCC(=O)Nc4ccccc4)cc3)N=C2c2ccccc2)c1 | 
8.37 | 7.12 | 8.37 | COc1ccc(NC(=O)COc2ccc(/C=C3\N=C(c4ccccc4)N(c4cccc(OC)c4)C3=O)cc2)cc1 | 
8.43 | 7.05 | 8.47 | COc1cccc(N2C(=O)/C(=C/c3ccc(OCC(=O)Nc4cccc(Cl)c4)cc3)N=C2c2ccccc2)c1 | 
